Experimental findings from patent US10119122B2, “Differentiation and expansion of endothelial cells from pluripotent stem cells and the in vitro formation of vasculature like structures” (Academisch Ziekenhuis Leiden, priority 2013, dated 2018) are described below.

In test [1] the test system is control iPSC-derived ECs co-cultured with control iPSC-derived pericytes/mesenchymal cells. The experiment in a line: 2D endothelial-pericyte co-culture sprouting assay, control ECs. The class given is cell-based, human. As to conditions: for sprout formation / number of endothelial sprouts: SB431542 (10 μM in FIG. 20 legend); for total area covered by endothelial sprouts: SB431542. Here is the method: (§1) The endothelial capillary-like network formation assay was carried out as previously described but with major modifications (Evensen et al., 2013). These included using both ECs and pericytes derived from human iPSC lines. This is described in more detail elsewhere (Orlova et al., manuscript in preparation). ECs were labelled with the general cytoplasmic labeling dye (PKH-26). For the sprouting assay, 12,000 ECs derived from both control and diseased lines were plated with 50,000 control iPSC-derived pericytes/well on 0.1% gelatin coated 96-well plates in EGM-2 (Lonza, CC-3162). Next day and on the day 4 of the assay, medium was replaced with new EGM-2 media containing tested compounds as indicated in the figure legends. Endothelial-pericyte co-culture was terminated on day 7 of the assay each well immunofluorescently stained for quantification, as follows: co-cultures were fixed with the 4% paraformaldehyde (PFA), permeabilized with the 0.1% TX-100 and blocked with the normal goat serum (Dako). Endothelial sprouts were visualized with the mouse anti-CD31 (Dako, 1:200). In some experiment with the mouse blocking antibodies, rabbit anti-CD31 (Scbt, 1:200) was used instead. Pericytes were visualized with antibodies against SM22 (Sigma, 1:200). The endothelial network was imaged with the BD Pathway 855 system using the 4× or 10× objective and 2×2 (or 3×3) Montage mode. Total area covered by the endothelial sprouts was quantified with the protocol developed within cell image analysis software CellProfiller (Broad Institute). High magnification images were acquired with the SP5 confocal microscope, using 10× and 40× objectives.
A two-dimensional co-culture system was first established in vitro consisting of control iPSC-derived ECs cultured with the control iPSC-derived mesenchymal cells (FIG. 10A). The protocol was optimized and adapted to the BD Pathway 855 imaging system, based on the protocol initially described for the co-culture of HUVECs and vascular SMCs (vSMCs) (Evensen et al., 2013). On day 7 of the co-culture, iPSC-derived EC had organized and formed spouts on the top mesenchymal cells, as evidenced by immunofluorescent staining with the EC-specific CD31 and SMC-specific SM22 markers (FIG. 10B).
(§2) Endothelial cell-pericyte co-culture was performed as described previously (Evensen et al., 2013) but using conditions optimized for iPSC-derived ECs and pericytes as described (Orlova et al., manuscript in preparation). In brief, 12,000 and 50,000 iPSC-derived ECs and pericytes were plated, respectively, in each well of a 96-well plate. Next day the co-cultures were refreshed with the specific treatment conditions indicated. The co-culture was fixed on day 7, and EC sprouts stained with anti-CD31 antibody (1:200, Dako) (as described in Orlova et al., manuscript in preparation). Pericytes were visualized with the anti-SM22 antibody (1:200, Abcam). The BD Pathway 855 system was used for automatic image acquisition, with the 4× objective and 2×2 (or in some cases 3×3) montage mode. CellProfiller (Broad Institute) custom pipeline was used for the image quantification.

Test [2] relates to HHT1-iPSC-derived ECs co-cultured with control iPSC-derived pericytes. The experiment in a line: 2D endothelial-pericyte co-culture sprouting assay, HHT1 patient ECs. As to conditions: SB431542 added with TGFβ3 (1 ng/ml) or BMP9 (1 ng/ml); day 7; control and HHT1-iPSC ECs (FIG. 17). The class given is cell-based, human. The protocol:
as §1
It was hypothesized that this system might be useful for distinguishing […] versus paracrine effects of endoglin deficiency in HHT1-iPSCs-derived ECs. Therefore, ECs from HHT-iPSC lines in the co-culture assay combined with the pericytes derived from the control iPSCs were examined. Little difference was observed between ECs from HHT1 and control iPSCs in co-culture. ECs from the patient harboring the 1083delAA and IVS 5+2 (T>C) mutation similar endothelial sprout formation as the controls (FIGS. 11A and 11B).
as §2

Where [3] appears, read: day 7, listed as ALK5 inhibitor.

Turning to `NC(=O)c1ccc(-c2nc(-c3ccc4c(c3)OCO4)c(-c3ccccn3)[nH]2)cc1` [SB431542, reference compound], the “SM22 fluorescence intensity in endothelial-pericyte co-culture” value in test [1] (ALK5 inhibitor, day 7, confocal imaging and quantification) was “increase in SM22 fluorescence intensity”. The “endothelial cell proliferation (Ki67+ ECs)” value in test [1] (SB431542 10 μM, day 7 co-culture) is “Increased endothelial cell proliferation”. For the same compound, in test [1] (day 7), the “sprout formation / number of endothelial sprouts” value is reported as “enhancement of sprout formation” and the “total area covered by endothelial sprouts” value is listed as “increase in the total area covered by endothelial sprouts”. Moreover, in test [1] (setting [3]), the “sprout formation / number of endothelial sprouts” value is given as “significant increase in number of endothelial sprouts” and the “total area covered by endothelial sprouts” value is listed as “significant increase”. Further, in test [2], the “rescue of ligand-induced inhibition of sprout formation” value was “rescued the inhibitory effect of both TGFβ3 and BMP-9”.
